The values below come from patent US20190016686A1, “SALTS OF COMPOUNDS HAVING A BENZIMIDAZOLIC STRUCTURE, USES AND PROCESS FOR THE PREPARATION THEREOF” (ISTITUTO SUPERIORE DI SANITÀ, priority 2015, published 2019).

For series [1] the following is noted: cited from earlier work.
Series [2] in a line: solubility in solvents (ethanol, methanol, water, n-hexane). The series is classed as physicochemical. To be noted: salt of the invention.
The test system of series [3] is cell lines of ovarian carcinoma. Particulars: published results; cited from earlier work.
Series [4] deals with cell lines of glioblastoma multiforme. Particulars: published results; cited from earlier work.
Where [5] appears, read: literature value (J Pharm Sci 94(5), 2005).

Converted amounts (≈) assume the structure as drawn. Where two headings read alike, the source gives them in different places.

With `CCC[S+]([O-])c1ccc2[nH]c(NC(=O)OC)nc2c1` (centres unmarked) [ABZ-SO, Albendazole sulphoxide], the solubility in ethanol in series [1] (setting [5]) is 1.36 mg/mL (≈ 4830 µM); in series [1] (non-salified sulphoxide, stated as known), “circa 1 mg mL^−1”. Moreover, the solubility in methanol result in series [1] (methanol, in words) is “slightly soluble”. Further, the solubility in n-hexane entry in series [1] (n-hexane, in words) is on record as “practically insoluble”. Moreover, the solubility in water entry is “practically insoluble” in series [1] (in words); “poorly soluble” in series [1] (in words, listed as RBZ); 0.062 mg/mL (≈ 220 µM) in series [1] (setting [5]).

`CCC[S+]([O-])c1ccc2[n-]c(NC(=O)OC)nc2c1.[Na+]` (centres unmarked) [ABZ-SO—Na]: the solubility in ethanol entry in series [2] (ethanol) was “about 30 mg mL^−1”. Also, in series [2] (methanol), the solubility in methanol entry is reported as “about 30 mg mL^−1”.

In the case of `COC(=O)Nc1nc2ccc(C(=O)c3ccccc3)cc2[nH]1` [MBZ, mebendazole], the cytotoxicity result in series [3] and in series [4] was “demonstrated cytotoxicity” each time.
